Assay results from paper PMC12679602 (RSC Advances, 2025).
“Also recorded” adds a separate entry of the source.

Key:
[1] = system: SARS-CoV-2 Delta variant (B.1.617.2); test: Virucidal assay against SARS-CoV-2; type: cell-based; settings: for virucidal activity against SARS-CoV-2: in words
[2] = system: SARS-CoV-2 Delta variant (B.1.617.2); type: cell-based

| Compound | virucidal activity against SARS-CoV-2 [1] | antiviral activity toward SARS-CoV-2 [2] | further results |
| --- | --- | --- | --- |
| C[C@H](CCC(=O)O)[C@H]1CC[C@H]2[C@@H]3CC[C@@H]4C[C@H](O)CC[C@]4(C)[C@H]3C[C@H](O)[C@]12C [DCA (5), deoxycholic acid] | did not exhibit antiviral or virucidal activity | did not exhibit antiviral activity; also recorded: did not exhibit antiviral or virucidal activity | virucidal activity against SARS-CoV-2 ([1]; listed as DCA, 5): did not show activity |
| C[C@H](CCC(=O)O)[C@H]1CC[C@H]2[C@@H]3[C@H](O)C[C@@H]4C[C@H](O)CC[C@]4(C)[C@H]3CC[C@]12C [CDCA (13), chenodeoxycholic acid] | did not exhibit antiviral or virucidal activity | did not exhibit antiviral activity; also recorded: did not exhibit antiviral or virucidal activity | virucidal activity against SARS-CoV-2 [1]; 13: did not show activity |
| C[C@H](CCC(=O)O)[C@H]1CC[C@H]2[C@@H]3CC[C@@H]4C[C@H](O)CC[C@]4(C)[C@H]3CC[C@]12C [LCA (1), lithocholic acid] | – | did not exhibit antiviral activity | SI (selectivity index) ([1]; SI = CC50/EC50, virucidal assay): >5.16 |
| C[C@H](CCC(=O)[O-])[C@H]1CC[C@H]2[C@@H]3CC[C@@H]4C[C@H](O)CC[C@]4(C)[C@H]3CC[C@]12C.C[N+](C)(C)CCO [[LCA][Z] (4)] | – | – | virucidal activity, times lower than the free acid LCA (1) ([1]; ratio of EC50 values): 3.27 times |
| C[C@H](CCC(=O)O)[C@H]1CC[C@H]2[C@@H]3[C@@H](O)C[C@@H]4C[C@H](O)CC[C@]4(C)[C@H]3CC[C@]12C [UDCA (9), ursodeoxycholic acid] | did not exhibit antiviral or virucidal activity | did not exhibit antiviral activity; also recorded: did not exhibit antiviral or virucidal activity | virucidal activity against SARS-CoV-2 [1]; 9: did not show activity |
